This note sets out measurements from US10933033B2, “Composition for preventing or reducing nephrotoxicity and use thereof” (KOREA INSTITUTE OF SCIENCE AND TECHNOLOGY, priority 2018, dated 2021).

In test [1] the test system is LLC-PK1 cells. Description: Protective effect against cisplatin nephrotoxicity, cell viability (CCK-8). The format is cell-based. The note with it: for effect on cell viability that had been reduced with cisplatin: 25 μM cisplatin, LLC-PK1, concentration-dependent; for viability at 5 µg/mL / viability at 10 µg/mL / viability at 25 µg/mL / viability at 50 µg/mL / viability at 100 µg/mL / viability at 10 µM: Sus scrofa, LLC-PK1. How it is done:
First, LLC-PK1 cells were cultured in a Dulbecco's modified Eagle's medium (DMEM) (available from Cellgro, Manassas, Va., USA) in which 10% of fetal bovine serum (FBS), 100 units/mL of penicillin G, and 100 μg/mL of streptomycin were added, in an incubator (95% air and 5% CO2) maintained at about 37° C. The used FBS, penicillin G, and streptomycin were purchased from Gibco BRL Life Technologies Inc. The cultured LLC-PK1 cells were dispensed in a 96-well plate at a density of 1×10^4 cells in 100 μL of the same DMEM medium per each well and then stabilized for about 22 hours.
After 1 hour, absorbance at a detection wavelength of 450 nm was measured using a BIO-TEK microplate reader (available from Winooski, Vt., USA) to thereby measure cell viability.

Test [2] concerns LLC-PK1 cells. The test is described as follows: Image-based cell analysis of apoptosis (Annexin V / PI, Tali cytometer). The following applies: for Apoptosis (%): 2 h pre-incubation, then 25 μM cisplatin for 24 h, LLC-PK1. As for the experimental part: The cultured LLC-PK1 cells in DMEM were dispensed in a 6-well plate at a density of 4×10^5 cells in 3 mL of the same DMEM medium per each well and then incubated under the same conditions for 24 hours to stabilize the cells.
After incubation under the same conditions for about 24 hours, the cells were collected using trypsin, washed once with phosphate-buffered saline (PBS), resuspended in 100 μL of annexin-binding buffer ([…], 140 mM NaCl, […], pH 7.4) to reach a cell number of about 5×10^5 to about 5×10^6 cells/mL, and then mixed with 5 μL of Annexin V Alexa Fluor 488 and left in the dark at room temperature for about 20 minutes to fix and stain the cells. The resulting cell suspension was centrifuged to discard the supernatant and collect precipitated cell pellets. The precipitated cell pellets were resuspended in 100 μL of annexin-binding buffer to obtain a resuspension.
Next, 1 μL of propidium iodide (PI) was added to the resuspension, mixed thoroughly, and then left in the dark at room temperature for about 1 minute to about 5 minutes to fix and stain the cells. The stained cells were analyzed using a Tali Image-based cytometer and TaliPCApp (version 1.0) software.
Cells were divided into live cells (annexin V-negative/PI-negative), early apoptotic cells (annexin V-positive/PI-negative), and late apoptotic or necrotic cells (annexin V-positive/PI-positive), and total apoptotic cells were expressed as a ratio of annexin V-positive cells to PI-negative or PI-positive cells.

Where only a bound is given, the exact number is not on record here.

Consider `Oc1cccc2c(-c3ccc(O)c4c(O)cccc34)ccc(O)c12` [BNT, 1,1′-binaphthalene-4,4′,5,5′-tetrol], for which, in test [1], the “effect on cell viability that had been reduced with cisplatin” value was “significantly increase cell viability”, the viability at 5 µg/mL was found to be 63.3%, the viability at 10 µg/mL amounted to 65.1% and the viability at 25 µg/mL stood at 65.4%. Besides, in test [1], the viability at 50 µg/mL stood at 71.5% and the viability at 100 µg/mL stood at 75.1%.
As to `O=C1CC2C(=C3c4c2ccc(O)c4[C@@H](O)C[C@@H]3O)c2cccc(O)c21` (some centres unmarked) [Hypoxylonol C], in test [1], the “effect on cell viability that had been reduced with cisplatin” value is “significantly increase cell viability”, the viability at 5 µg/mL was found to be 76.9%, the viability at 10 µM was ≥ 85% and the viability at 10 µg/mL is 86.6%. Further, in test [1], the viability at 25 µg/mL worked out at 89.3%, the viability at 50 µg/mL is 89.5% and the viability at 100 µg/mL was 92.5%.
Consider `O=C1CC2C(=C3c4c2ccc(O)c4[C@H](O)C[C@@H]3O)c2cccc(O)c21` (some centres unmarked) [Hypoxylonol F], for which, in test [1], the “effect on cell viability that had been reduced with cisplatin” value is on record as “significantly increase cell viability”, the viability at 5 µg/mL amounted to 86.4%, the viability at 10 µM was ≥ 90% and the viability at 10 µg/mL worked out at 90.9%. In test [1], the viability at 25 µg/mL was 92.2%, the viability at 50 µg/mL amounted to 92.3% and the viability at 100 µg/mL came to 94.4%. In addition, in test [2] (5 μM and 10 μM, 25 μM cisplatin), the “apoptosis of the LLC-PK1 cells caused by cisplatin” value is recorded as “significantly reduced”. Besides, the “Apoptosis (%)” value in test [2] (5 μM) amounted to 26.3%. In addition, the “Apoptosis (%)” value in test [2] (10 μM) came to 6.6%.

By viability is commonly meant a read-out of living cells in per cent, often relative to untreated cells.
